Experiment [1] has as its target T1, NNMT (Homo sapiens, UniProt P40261).
T1 sequence (P40261 1-264): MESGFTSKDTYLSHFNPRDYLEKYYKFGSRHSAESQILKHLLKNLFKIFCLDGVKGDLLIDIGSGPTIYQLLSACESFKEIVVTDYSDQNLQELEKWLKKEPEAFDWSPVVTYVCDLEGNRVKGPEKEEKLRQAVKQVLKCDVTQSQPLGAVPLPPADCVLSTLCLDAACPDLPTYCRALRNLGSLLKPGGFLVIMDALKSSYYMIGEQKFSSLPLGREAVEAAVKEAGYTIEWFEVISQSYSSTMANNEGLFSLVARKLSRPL
Particulars: read-out: Literature value Km; cofactor; cited from earlier work.

The target in experiment [2] is T1, NNMT. Put plainly: FP-based competition binding assay with probe II138.
The target of experiment [3] is T1, NNMT. The conditions noted are these: read-out: Literature value Ki, determined by SAHH coupled assay; cited from earlier work.
The target in experiment [4] is T1, NNMT. Put plainly: SAHH-coupled fluorescence assay. It is filed as biochemical. The conditions noted are these: linker effect.

Like-named read-outs stand apart in the source and are kept apart here. A value given as a limit tells only on which side of the number the result lay.

The Km is the concentration of substrate that gives half-maximal velocity. For orientation: Ki means the dissociation constant of the complex between target and ligand, obtained from inhibition or displacement.

In the case of `C[S+](CC[C@H](N)C(=O)[O-])C[C@H]1O[C@@H](n2cnc3c(N)ncnc32)[C@H](O)[C@@H]1O` (stereo partly drawn) [AdoMet, S-adenosyl-L-methionine], at NNMT [1], the Km was 24 ± 6.8 µM. Further, the inhibitory constant (Ki) at NNMT [2] was determined as 20.3 ± 2.9 µM.
In the case of 1 methyl quinoline [1-MQ], the Ki at NNMT [3] is greater than 100 µM.
With `NC(=O)c1cccnc1` [NAM, nicotinamide], the inhibitory constant (Ki) is greater than 100 µM at NNMT [3] and greater than 1000 µM on NNMT [2].
On to `NCCCNc1ncnc2c1ncn2[C@@H]1O[C@H](CN(CC#Cc2cccc(C(N)=O)c2)CC[C@H](N)C(=O)O)[C@@H](O)[C@H]1O` [compound 10], for which the “Difference of Ki in FP assay in comparison with SAHH coupled assay” value on NNMT [2] (FP Ki versus SAHH-coupled Ki) was “less than 2 fold”. Further, the “Loss in Ki in comparison with LL320” value at NNMT [4] is listed as “about 100 fold”.
